Test results as given in article PMC2972222, “Breast Cancer Stem-Like Cells Are Inhibited by a Non-Toxic Aryl Hydrocarbon Receptor Agonist” (PLoS ONE, 2010).

Columns and labels:
[1] = target: T1, aryl hydrocarbon receptor (AHR) (Mus musculus, UniProt P30561); assay: competition radioligand binding, unlabeled 3-MC versus [3-H]-3-MC on antibody-immobilized AHR
T1 construct: native AHR from mouse liver cytosol, immobilized on plate with anti-AHR antibody
T1 sequence (P30561 10-848): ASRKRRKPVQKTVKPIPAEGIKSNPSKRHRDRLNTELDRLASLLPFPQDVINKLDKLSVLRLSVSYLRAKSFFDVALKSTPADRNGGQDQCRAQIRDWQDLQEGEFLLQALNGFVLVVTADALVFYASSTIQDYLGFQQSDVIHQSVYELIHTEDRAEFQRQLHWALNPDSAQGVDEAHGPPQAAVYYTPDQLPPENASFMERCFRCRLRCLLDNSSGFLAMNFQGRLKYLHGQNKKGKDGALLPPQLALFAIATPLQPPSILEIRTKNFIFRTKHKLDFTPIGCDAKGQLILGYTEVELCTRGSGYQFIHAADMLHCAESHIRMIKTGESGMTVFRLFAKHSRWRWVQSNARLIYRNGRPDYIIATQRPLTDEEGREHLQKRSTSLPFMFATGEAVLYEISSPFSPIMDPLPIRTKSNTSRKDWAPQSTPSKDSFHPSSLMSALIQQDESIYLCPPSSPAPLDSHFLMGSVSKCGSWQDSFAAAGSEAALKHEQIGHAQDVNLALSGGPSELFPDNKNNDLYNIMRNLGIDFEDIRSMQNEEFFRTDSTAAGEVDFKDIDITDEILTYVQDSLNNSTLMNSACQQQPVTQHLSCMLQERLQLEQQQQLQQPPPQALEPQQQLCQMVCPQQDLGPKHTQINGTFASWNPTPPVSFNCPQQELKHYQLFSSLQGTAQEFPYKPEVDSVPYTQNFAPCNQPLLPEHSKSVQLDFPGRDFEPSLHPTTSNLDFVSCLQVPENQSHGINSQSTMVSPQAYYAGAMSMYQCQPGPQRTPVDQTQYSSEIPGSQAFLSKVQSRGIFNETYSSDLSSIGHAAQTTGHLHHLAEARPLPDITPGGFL
Excerpt: competition radioligand binding, unlabeled 3-MC versus [3-H]-3-MC on antibody-immobilized AHR on aryl hydrocarbon receptor (AHR) | Competition of tranilast or unlabeled 3-MC with [3-H]-3-MC for binding to plate-immobilized AHR from mouse liver cytosol

[2] = target: T1, aryl hydrocarbon receptor (AHR); assay: competition radioligand binding with [3-H]-3-MC on antibody-immobilized AHR

Compound: Cc1ccc2cc3c(ccc4ccccc43)c3c2c1CC3 [3-methylcholanthrene]
- Ki [1]: 0.035 µM

Compound: COc1ccc(/C=C/C(=O)Nc2ccccc2C(=O)O)cc1OC [tranilast, N-[3,4-dimethoxycinnamoyl]anthranilic acid]
- Ki [2]: 44 µM
